Source: patent publication US20100087788A1, “Anti-infective alcohol catheter solution with chlorhexidine treated catheter” (priority 2006, published 2010)

Tests used:
C. albicans ATCC 10231 = details: ethanol
Experimental: (§1) Determinations of Minimum Inhibitory Concentration (MIC) and Minimum Bacteriocidal Concentration (MBC) were performed using standard microbiological techniques. Chlorhexidine diacetate was tested at the following μg/mL concentrations: 256, 128, 64, 32, 16, 8, 4, 2, 1, 0.5, 0.25, and 0.125. Ethanol was tested at the following percent (%) concentrations: 50, 40, 30, 25, 20, 15, 12, 10, 7, and 5. Dilutions were prepared in Cationic Adjusted Mueller Hinton Broth (CAMHB). All tests were performed in microtiter plates with a total test volume of 100 μL, including diluted antimicrobial agent and inoculum. Concentrations of antimicrobial agents were prepared at 2× concentration, and 50 μL was added to each well of a microtiter plate, to which 50 μL of inoculum of the test organism was added to give the target test concentration.
(§2) Inoculum was prepared by transfer of isolated colonies from agar plates to 10 mL of trypticase soy broth (TSB), and incubation at 37° C. for 4 hrs. Cells were subsequently centrifuged, and resuspended twice in phosphate buffered saline. The population of this bacterial suspension was determined by reading optical density at 670 nm. Final concentrations of inoculum were adjusted to a range of approximately 5×10^4 cfu/mL, using CAMHB as a diluent. Initial concentrations were verified using the Miles and Misra drop count method. To each test well of a microtiter plate, 50 μl of inoculum was added along with 50 μl of the 2× concentration of the antimicrobial agent being tested. Incubation was at 37° C. for 16 to 20 hours.
(§3) To determine MBC values, 50 μl was removed from each well showing inhibition of growth (MIC and greater). Solutions from these inhibitory concentrations of antimicrobial agent were diluted in CAMHB to concentrations where they would no longer inhibit the growth of the test organism. Recovery counts were obtained by plating aliquots of the diluted material onto TSA plate containing 5% sheep's blood, and incubating 24 hours at 37° C.

E. cloacae ATCC 13047 = details: ethanol
Experimental: as §1, §2, §3

E. coli ATCC 25922 = details: ethanol
Experimental: as §1, §2, §3

E. faecalis ATCC 51299 = details: ethanol
Experimental: as §1, §2, §3

K. pneumoniae ATCC 10031 = details: ethanol
Experimental: as §1, §2, §3

P. aeruginosa ATCC 27853 = details: ethanol
Experimental: as §1, §2, §3

S. aureus ATCC 29213 = details: ethanol
Experimental: as §1, §2, §3

[1] = tested on: S. epidermidis ATCC 35983; details: ethanol
Experimental: as §1, §2, §3

[2] = tested on: most commonly encountered infectious pathogens; details: conclusion from Table 1
Experimental: as §1, §2, §3

most microorganisms = details: Sissons et al. 1996; cited from earlier work
[3] = Solubility of chlorhexidine salts in ethanol (100%) and water; type: physicochemical; details: for Ethanol Solubility: ethanol (100%)
E. faecalis = assay: MBC of chlorhexidine diacetate alone and at 80% of the ethanol MIC; type: cell-based
Experimental: as §1
as §2, with “To each test well of a microtiter plate, 50 μl of inoculum was added along with 50 μl of the 2× concentration of the antimicrobial agent being tested. Incubation was at 37° C. for 16 to 20 hours.” left out

E. coli = assay: as above; type: cell-based
Excerpt: (§4) The synergy of ethanol and chlorhexidine is illustrated in Table 2 by measurement of the minimum bacteriocidal concentration (MBC) of chlorhexidine at ethanol concentrations that are subinhibitory (80% of the ethanol minimum inhibitory concentration).

S. aureus = assay: as above; type: cell-based
Excerpt: as §4

[4] = tested on: E. faecalis, S. aureus, E. coli; assay: Change of chlorhexidine MBC at subinhibitory ethanol (summary of Table 2); type: cell-based; details: ethanol at 80% of the ethanol MIC
Experimental: as §1
as §2, with “To each test well of a microtiter plate, 50 μl of inoculum was added along with 50 μl of the 2× concentration of the antimicrobial agent being tested. Incubation was at 37° C. for 16 to 20 hours.” left out

[5] = Release kinetics of chlorhexidine from loaded catheter segments; type: physicochemical; details: catheter segments 200 micrograms/cm
Experimental: 5Fr Catheter segments were bulk impregnated with chlorhexidine base (CHX) by soaking in an ethyl acetate solution of CHX and then evaporating the solvent. The chlorhexidine mass per unit length was determined by dissolving the catheter […] extracting the chlorhexidine. The measure mass of chlorhexidine was approximately 200 micrograms per cm. 5Fr catheter segments were similarly impregnated with chlorhexidine diacetate to a level of 200 micrograms/cm by soaking in an ethyl acetate-methanol solution followed by evaporation. These segments were used in Zone of inhibition testing and release kinetics testing.
Release kinetics measurements were performed of chlorhexidine base (CHX) and chlorhexidine diacetate (CHA) loaded catheter segments (200 micrograms/cm) in water and in 25% ethanol lock. One cm long catheter segments were placed in 10 ml of 25% ethanol lock solution. At each sampling point the eluting solution was removed and replaced with fresh solution. The amount of chlorhexidine released was measured by UV absorbance readings at 263 nm on the eluting lock solution relative to a reference curve of chlorhexidine standards prepared to known concentrations in 25% ethanol lock. Cumulative % release was calculated from the measured amount released at each time point and the quantity of chlorhexidine loaded into the catheter segments.

Work on CCO [ethanol] yielded an MBC (C. albicans ATCC 10231) of 10%, an MIC (C. albicans ATCC 10231; CAMHB, 37° C., 16 to 20 hours) of 7% and an MBC (E. cloacae ATCC 13047) of 10%. It also gave an MIC (E. cloacae ATCC 13047; CAMHB, 37° C., 16 to 20 hours) of 7%, an MBC (E. coli ATCC 25922) of 15% and an MIC (E. coli ATCC 25922; CAMHB, 37° C., 16 to 20 hours) of 10%. For the same compound, the MBC (E. faecalis ATCC 51299) was 10%, the MIC (E. faecalis ATCC 51299; CAMHB, 37° C., 16 to 20 hours) was 7% and the MBC (K. pneumoniae ATCC 10031) was 25%. For the same compound, the MIC (K. pneumoniae ATCC 10031; CAMHB, 37° C., 16 to 20 hours) was 10%, the MBC (P. aeruginosa ATCC 27853) was 12% and the MIC (P. aeruginosa ATCC 27853; CAMHB, 37° C., 16 to 20 hours) was 7%. The MBC (S. aureus ATCC 29213) was 25%, the MIC (S. aureus ATCC 29213; CAMHB, 37° C., 16 to 20 hours) was 12% and the MBC [1] was 10-12%. For the same compound, the MIC ([1]; CAMHB, 37° C., 16 to 20 hours) was 12%, the “ethanol concentration at which the solution will not inhibit microbial growth” value [2] was “below 7%” and the “ethanol lock concentration cidal towards most commonly encountered infectious pathogens” value [2] was “above 25%”. The “concentration that inhibits the growth of most microorganisms” value (most microorganisms) was 10% and the “concentrations generally considered bactericidal” value (most microorganisms) was at least 40%.

With CCCCC(=O)O.CCCCC(=O)O.N=C(NCCCCCCNC(=N)NC(=N)Nc1ccc(Cl)cc1)NC(=N)Nc1ccc(Cl)cc1 [Valerate] the “Ethanol Solubility” value [3] was 20 mg/mL and the “Water Solubility” value [3] was 1.2 mg/mL.

In the case of CC(=O)O.CC(=O)O.NC(=N\CCCCCC/N=C(N)/N=C(\N)Nc1ccc(Cl)cc1)/N=C(\N)Nc1ccc(Cl)cc1 [CHA, chlorhexidine diacetate], the “MBC for CHA @ 80% MIC ETOH” value (E. faecalis; ethanol 5.6% (80% of MIC)) was 4 µg/mL, the “MBC for CHA” value (E. faecalis; no ethanol) was 8 µg/mL and the “MBC for CHA @ 80% MIC ETOH” value (E. coli; ethanol 8% (80% of MIC)) was 2 µg/mL. The “MBC for CHA” value (E. coli; no ethanol) was 4 µg/mL, the “MBC for CHA @ 80% MIC ETOH” value (S. aureus; ethanol 9.6% (80% of MIC)) was 1 µg/mL and the “MBC for CHA” value (S. aureus; no ethanol) was 1 to 2 µg/mL. The “drop of chlorhexidine MBC in the presence of subinhibitory ethanol concentrations” value [4] was “approximately 50%” and the “release of chlorhexidine from catheter into 25% ethanol lock solution, compared with chlorhexidine base (FIG. 2)” value [5] was “releases faster”.

For Laurate, the “Ethanol Solubility” value [3] was 200 mg/mL and the “Water Solubility” value [3] was 0.01 mg/mL.
